biological target: T1, HDAC6 (Homo sapiens, UniProt Q9UBN7); assay: In vitro Histone Deacetylase Assay (enzymatic HDAC6 electrophoretic mobility shift assay); type: biochemical; conditions: full length human recombinant HDAC6, 1 nM enzyme, 2 μM peptide substrate RHKK(Ac)-NH2, 25° C.; read-out: HDAC6 activity range
T1 construct: Full length human recombinant HDAC6 protein was expressed in baculoviral system; made in house; host or cells: baculoviral system
T1 sequence (Q9UBN7 1-1215): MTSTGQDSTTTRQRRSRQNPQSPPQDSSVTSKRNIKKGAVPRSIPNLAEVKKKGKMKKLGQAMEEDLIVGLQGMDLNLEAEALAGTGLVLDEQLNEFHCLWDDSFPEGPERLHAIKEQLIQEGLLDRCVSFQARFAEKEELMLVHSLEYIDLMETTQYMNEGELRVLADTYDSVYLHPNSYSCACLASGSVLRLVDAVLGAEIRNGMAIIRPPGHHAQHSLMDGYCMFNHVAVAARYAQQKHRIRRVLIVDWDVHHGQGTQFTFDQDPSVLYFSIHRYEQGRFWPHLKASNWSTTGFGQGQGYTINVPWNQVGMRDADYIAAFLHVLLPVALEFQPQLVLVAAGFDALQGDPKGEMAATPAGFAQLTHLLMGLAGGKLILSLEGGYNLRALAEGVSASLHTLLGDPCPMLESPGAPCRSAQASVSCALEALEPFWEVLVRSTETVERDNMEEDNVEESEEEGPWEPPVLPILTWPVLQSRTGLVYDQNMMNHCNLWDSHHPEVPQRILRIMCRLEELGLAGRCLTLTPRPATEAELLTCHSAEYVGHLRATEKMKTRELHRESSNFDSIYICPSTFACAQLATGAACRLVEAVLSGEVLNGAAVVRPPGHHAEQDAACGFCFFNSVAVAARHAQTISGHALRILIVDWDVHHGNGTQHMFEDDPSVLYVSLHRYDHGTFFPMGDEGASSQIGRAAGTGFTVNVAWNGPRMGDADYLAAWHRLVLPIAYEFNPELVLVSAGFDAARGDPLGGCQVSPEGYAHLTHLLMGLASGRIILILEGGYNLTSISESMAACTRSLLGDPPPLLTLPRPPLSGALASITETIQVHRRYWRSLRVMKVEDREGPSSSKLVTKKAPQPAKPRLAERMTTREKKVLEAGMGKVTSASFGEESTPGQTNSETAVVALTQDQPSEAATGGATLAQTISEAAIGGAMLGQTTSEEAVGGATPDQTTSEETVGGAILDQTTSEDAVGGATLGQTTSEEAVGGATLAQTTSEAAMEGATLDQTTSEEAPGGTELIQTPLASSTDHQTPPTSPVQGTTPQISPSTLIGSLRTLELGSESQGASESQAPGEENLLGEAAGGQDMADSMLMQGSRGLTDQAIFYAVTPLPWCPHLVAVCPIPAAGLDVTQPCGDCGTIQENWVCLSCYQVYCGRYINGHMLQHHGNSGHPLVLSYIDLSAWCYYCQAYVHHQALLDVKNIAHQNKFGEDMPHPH
Method: The enzymatic HDAC6 assay was performed using electrophoretic mobility shift assay. Full length human recombinant HDAC6 protein was expressed in baculoviral system and purified by affinity chromatography. The enzymatic reactions were assembled in 384 well plates in a total volume of 25 μL in a reaction buffer composing: 100 mM HEPES, pH7.5, 25 mM KCl, 0.1% bovine serum albumin, 0.01% Triton X-100, 1% DMSO (from compounds) 2 μM of the fluorescently labeled peptide substrate and enzyme. The enzyme was added at a final concentration of 1 nM. The peptide substrate RHKK(Ac)—NH2 was used. The compounds were tested at 12 concentrations spaced by 3× dilution intervals. Negative control samples (0%-inhibition in the absence of inhibitor) and positive control samples (100%-inhibition) were assembled in replicates of four in each assay plate. The reactions were incubated at 25° C. and quenched by the addition of 45 μL of termination buffer (100 mM HEPES, pH 7.5, 0.01% Triton X-100, 0.05% SDS).
The terminated assay plates were analyzed on LabChip® 3000 microfluidic electrophoresis instrument (Perkin Elmer/Caliper Life Sciences). The fluorescence intensity of the electrophoretically separated de-acetylated product and substrate peptide was measured. Activity in each sample was determined as the product to sum ratio (PSR): P/(S+P), where P is the peak height of the product peptide and S is the peak height of the substrate peptide. Percent inhibition (Pinh) is determined using the following equation:
Pinh=(PSR0%−PSRinh)/(PSR0%−PSR100%)*100, where PSRinh is the product sum ratio in the presence of inhibitor, PSR0% is the average product sum ration in the absence of inhibitor and PSR100% is the average product sum ratio in 100%-inhibition control samples. The IC50 values of inhibitors were determined by fitting the %-inhibition curves with 4 parameter dose-response model using XLfit 4 software.
As set forth in Table-31, below, IC50 values are defined as follows: IC50≦0.1 μM (+++); IC50>0.1 μM and ≦0.5 μM (++); IC50>0.5 μM (+).

SMILES | IC50 [µM]
O=C(NO)c1ccc2c(c1)CC[C@@]1(CCN(c3ccccn3)C1=O)C2 [Compound I-21, (S)-N-hydroxy-2′-oxo-1′-(pyridin-2-yl)-3,4-dihydro-1H-spiro[naphthalene-2,3′-pyrrolidine]-6-carboxamide] | ≤ 0.1
Cc1ccc(N2CC[C@@]3(CCc4cc(C(=O)NO)ccc4C3)C2=O)c(C)c1 [Compound I-100, (S)-1′-(2,4-dimethylphenyl)-N-hydroxy-2′-oxo-3,4-dihydro-1H-spiro[naphthalene-2,3′-pyrrolidine]-6-carboxamide] | ≤ 0.1
O=C(NO)c1ccc2c(c1)CC[C@]1(CCN(Cc3ccc4ccccc4c3)C1=O)C2 [Compound I-58, (R)-N-hydroxy-1′-(naphthalen-2-ylmethyl)-2′-oxo-3,4-dihydro-1H-spiro[naphthalene-2,3′-pyrrolidine]-6-carboxamide] | ≤ 0.1
O=C(NO)c1ccc2c(c1)CCC1(CCNC1=O)S2(=O)=O (stereo not shown) [Compound I-243, N-hydroxy-2-oxospiro[pyrrolidine-3,2′-thiochromane]-6′-carboxamide 1′,1′-dioxide] | > 0.5
O=C(NO)c1ccc2c(c1)CCC1(CCN(C(=O)N3CC4(CCOCC4)c4ccccc43)CC1)O2 [II-9, N-hydroxy-1′-(2′,3′,5′,6′-tetrahydrospiro[indoline-3,4′-pyran]-1-carbonyl)spiro[chromane-2,4′-piperidine]-6-carboxamide] | > 0.5
O=C(NO)c1ccc2c(c1)CCC1(CC(=O)N(c3ccccc3)C1)C2 (single isomer, unassigned) [Compound I-204] | ≤ 0.1
COc1cc(N2CC[C@@]3(CCc4cc(C(=O)NO)ccc4C3)C2=O)ccn1 [Compound I-150, (S)-N-hydroxy-1′-(2-methoxypyridin-4-yl)-2′-oxo-3,4-dihydro-1H-spiro[naphthalene-2,3′-pyrrolidine]-6-carboxamide] | ≤ 0.1
CSc1cccc(N2CC[C@]3(CCc4cc(C(=O)NO)ccc4C3)C2=O)c1 [Compound I-92, (R)-N-hydroxy-1′-(3-(methylthio)phenyl)-2′-oxo-3,4-dihydro-1H-spiro[naphthalene-2,3′-pyrrolidine]-6-carboxamide] | ≤ 0.1
CCCN1CC[C@@]2(CCc3cc(C(=O)NO)ccc3C2)C1=O [Compound I-60, (S)-N-hydroxy-2′-oxo-1′-propyl-3,4-dihydro-1H-spiro[naphthalene-2,3′-pyrrolidine]-6-carboxamide] | 0.1 to 0.5
COc1ccc(N2CC[C@]3(CCc4cc(C(=O)NO)ccc4C3)C2=O)cn1 [Compound I-114, (R)-N-hydroxy-1′-(6-methoxypyridin-3-yl)-2′-oxo-3,4-dihydro-1H-spiro[naphthalene-2,3′-pyrrolidine]-6-carboxamide] | ≤ 0.1
O=C(NO)c1ccc2c(c1)CC[C@]1(CC(=O)N(c3ccccc3)C1)C2 (single isomer, unassigned) [Compound I-203] | ≤ 0.1
COc1cccc(CN2CC[C@@]3(CCc4cc(C(=O)NO)ccc4C3)C2=O)c1 [Compound I-77, (S)-N-hydroxy-1′-(3-methoxybenzyl)-2′-oxo-3,4-dihydro-1H-spiro[naphthalene-2,3′-pyrrolidine]-6-carboxamide] | ≤ 0.1
O=C(NO)c1ccc2c(c1)CC[C@@]1(CCN(CC3CCC3)C1=O)C2 [Compound I-61, (S)-1′-(cyclobutylmethyl)-N-hydroxy-2′-oxo-3,4-dihydro-1H-spiro[naphthalene-2,3′-pyrrolidine]-6-carboxamide] | 0.1 to 0.5
CC(C)CN1CC[C@]2(CCc3cc(C(=O)NO)ccc3C2)C1=O [Compound I-159, (R)-N-hydroxy-1′-isobutyl-2′-oxo-3,4-dihydro-1H-spiro[naphthalene-2,3′-pyrrolidine]-6-carboxamide] | ≤ 0.1
O=C(NO)c1ccc2c(c1)CC[C@]1(CCN(Cc3ccc(S(=O)(=O)C(F)(F)F)cc3)C1=O)C2 [Compound I-106, (R)-N-hydroxy-2′-oxo-1′-(4-((trifluoromethyl)sulfonyl)benzyl)-3,4-dihydro-1H-spiro[naphthalene-2,3′-pyrrolidine]-6-carboxamide] | ≤ 0.1
O=C(NO)c1ccc2c(c1)CC[C@]1(CC(=O)N(Cc3cccnc3)C1)C2 (single isomer, unassigned) [Compound I-226] | ≤ 0.1
CN(C)c1ccc(N2CC[C@]3(CCc4cc(C(=O)NO)ccc4C3)C2=O)cc1 [Compound I-93, (R)-1′-(4-(dimethylamino)phenyl)-N-hydroxy-2′-oxo-3,4-dihydro-1H-spiro[naphthalene-2,3′-pyrrolidine]-6-carboxamide] | ≤ 0.1
COc1cc(N2CC[C@]3(CCc4cc(C(=O)NO)ccc4C3)C2=O)ccn1 [Compound I-149, (R)-N-hydroxy-1′-(2-methoxypyridin-4-yl)-2′-oxo-3,4-dihydro-1H-spiro[naphthalene-2,3′-pyrrolidine]-6-carboxamide] | ≤ 0.1
Cn1c(CN2CC[C@]3(CCc4cc(C(=O)NO)ccc4C3)C2=O)nc2ccccc21 [Compound I-46, (R)-N-hydroxy-1′-((1-methyl-1H-benzo[d]imidazol-2-yl)methyl)-2′-oxo-3,4-dihydro-1H-spiro[naphthalene-2,3′-pyrrolidine]-6-carboxamide] | ≤ 0.1
O=C(NO)c1ccc2c(c1)CCC1(CCCN(CC3CCC3)C1=O)C2 (single isomer, unassigned) [Compound I-186] | ≤ 0.1
O=C(NO)c1ccc2c(c1)CC[C@]1(CCN(Cc3ccccc3)C1=O)C2 [Compound I-50, (R)-1′-benzyl-N-hydroxy-2′-oxo-3,4-dihydro-1H-spiro[naphthalene-2,3′-pyrrolidine]-6-carboxamide] | ≤ 0.1
O=C(NO)c1ccc2c(c1)CC[C@@]1(CCN(Cc3ccc4ccccc4c3)C1=O)C2 [Compound I-86, (S)-N-hydroxy-1′-(naphthalen-2-ylmethyl)-2′-oxo-3,4-dihydro-1H-spiro[naphthalene-2,3′-pyrrolidine]-6-carboxamide] | ≤ 0.1
Cc1ccncc1N1CC[C@]2(CCc3cc(C(=O)NO)ccc3C2)C1=O [Compound I-136, (R)-N-hydroxy-1′-(4-methylpyridin-3-yl)-2′-oxo-3,4-dihydro-1H-spiro[naphthalene-2,3′-pyrrolidine]-6-carboxamide] | ≤ 0.1
O=C(NO)c1ccc2c(c1)CCC1(CCN(c3ccccc3)C1=O)S2(=O)=O (stereo not shown) [Compound I-238, N-hydroxy-2-oxo-1-phenylspiro[pyrrolidine-3,2′-thiochromane]-6′-carboxamide 1′,1′-dioxide] | 0.1 to 0.5
O=C(NO)c1ccc2c(c1)CCC1(CCN(Cc3nc4ccccc4[nH]3)CC1)O2 [II-2, 1′-((1H-benzo[d]imidazol-2-yl)methyl)-N-hydroxyspiro[chromane-2,4′-piperidine]-6-carboxamide] | > 0.5
